Patent publication US12624031B2, “Inhibitors of ubiquitin specific peptidase 22 (USP22) and uses thereof for treating diseases and disorders” (Northwestern University, priority 2022, dated 2026)

Experiments:
[1] = molecular target: human GST-USP22 with Sgf11, Sgf73 1-105 and Sus1 (Homo sapiens, UniProt Q9UPT9); test: in vitro USP22 deubiquitination assay (re-constructed deubiquitination module); format: biochemical; details: customized deubiquitination assay, human GST-USP22 with Sgf11, Sgf73 1-105, Sus1; read-out: IC50 in suppressing USP22 in vitro catalytic activity
Sequence of human GST-USP22 with Sgf11, Sgf73 1-105 and Sus1 (Q9UPT9 whole entry): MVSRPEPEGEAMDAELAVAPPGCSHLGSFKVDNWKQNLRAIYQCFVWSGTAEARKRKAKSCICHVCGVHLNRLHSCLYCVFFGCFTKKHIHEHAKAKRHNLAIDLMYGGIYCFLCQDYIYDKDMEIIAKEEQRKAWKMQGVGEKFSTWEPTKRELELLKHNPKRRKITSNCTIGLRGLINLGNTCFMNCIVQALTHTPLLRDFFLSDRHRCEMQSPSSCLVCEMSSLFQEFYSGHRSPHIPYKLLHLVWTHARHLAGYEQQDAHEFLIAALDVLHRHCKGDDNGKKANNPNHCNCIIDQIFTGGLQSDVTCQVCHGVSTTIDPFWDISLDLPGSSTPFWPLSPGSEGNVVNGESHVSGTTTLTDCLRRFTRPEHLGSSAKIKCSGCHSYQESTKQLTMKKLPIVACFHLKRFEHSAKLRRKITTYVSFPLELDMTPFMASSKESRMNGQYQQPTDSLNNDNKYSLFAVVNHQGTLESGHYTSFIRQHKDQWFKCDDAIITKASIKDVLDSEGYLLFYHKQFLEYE
Sequence of human GST-USP22 with Sgf11, Sgf73 1-105 and Sus1 (Q14CW9 whole entry partner): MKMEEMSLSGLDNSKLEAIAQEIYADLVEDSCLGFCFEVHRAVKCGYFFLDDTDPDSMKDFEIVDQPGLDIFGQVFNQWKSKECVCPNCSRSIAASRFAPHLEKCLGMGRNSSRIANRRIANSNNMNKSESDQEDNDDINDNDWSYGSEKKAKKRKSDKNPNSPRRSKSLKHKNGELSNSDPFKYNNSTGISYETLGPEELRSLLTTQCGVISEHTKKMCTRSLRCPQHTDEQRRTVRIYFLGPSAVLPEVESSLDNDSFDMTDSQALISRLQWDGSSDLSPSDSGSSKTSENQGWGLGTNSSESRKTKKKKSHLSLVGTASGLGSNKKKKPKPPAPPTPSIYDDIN
Sequence of human GST-USP22 with Sgf11, Sgf73 1-105 and Sus1 (O15265 1-105 partner limits assumed): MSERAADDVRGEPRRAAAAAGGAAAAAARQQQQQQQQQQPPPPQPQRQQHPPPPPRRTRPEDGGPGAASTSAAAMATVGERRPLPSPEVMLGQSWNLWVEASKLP
Sequence of human GST-USP22 with Sgf11, Sgf73 1-105 and Sus1 (Q9NPA8 whole entry partner): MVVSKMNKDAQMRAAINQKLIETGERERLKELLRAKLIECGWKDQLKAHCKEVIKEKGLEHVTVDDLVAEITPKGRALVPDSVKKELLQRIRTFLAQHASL
Method: (A) The chemical structure of S02-S106 11-((4-cyanophenyl)amino)-7,8,9,10-tetrahydrobenzo(4,5)imidazole[1,2-b]isoquinoline-6-carbonitrile, (B & C) The efficacy of USP22i-S02 analogs in inhibiting USP22 catalytic activity was determined in vitro. The representative data from a triplicate analysis of S02-S106 with S02 as a control are shown (B). The IC50 of USP22i-S02 analogs in suppressing USP22 in vitro catalytic activity are shown (C). NA, not available.
We purchased human recombinant Sgf11 and Sgf73 1-105 and Sus1 proteins from R&D Systems Inc, and re-constructed the deubiquitination activity with our human GST-USP22. The USP22 customized deubiquitination was optimized and used for in vitro screening the activity of synthetic USP22i-s02 analogs with the USP22i-s02 as a control (FIG. 12).

[2] = test system: polarized CD4+ T-regulatory cells; test: cytotoxicity in polarized CD4+ T-regulatory cells; format: cell-based, murine; details: 156 ng/mL to 5 ug/mL, compared to DMSO controls
Method: FIG. 2: Cytotoxicity of compounds from 156 ng/mL to 5 ug/mL concentration range in polarized CD4+ T-regulatory cells. Murine CD4+ T-cells were isolated and polarized in vitro to T-regulatory cells using 5 ng/mL IL-2, 2 μg/mL anti-IL-4, 2 μg/mL anti-IFNγ, and 1 ng/mL TGFβ. After 48 hours, the inhibitors were added to the cells.
We then synthesized all 17 compounds and validated their cytotoxicity to regulatory T cells. To this end, mouse CD4 T cells were polarized to FoxP3 Tregs for two days, followed by treatment of the cells with each of the compounds at the doses upto 5 ug/ml. […] In addition, the rest of the compounds had poor solubility in DMSO, and were not further tested.

Foxp3 in iTreg cells = test: in vitro dose response study in WT and Usp22-null iTreg cells; format: cell-based, murine
Method: (§1) FIG. 6: Usp22i-S02 halts Usp22-mediated Foxp3 deubiqutination. A, Graphical representation of Foxp3 MFI change in WT versus 22KO iTreg cells treated with various doses of Usp22i-S02 (n=3). B, Representative histogram of Foxp3 MFI level in iTreg cells as Usp22 inhibitor concentration increases from 0-20 μg/mL. C, Cell survival of iTreg cells treated with various doses of Usp22i-S02 (n=3). D, FOXP3 and USP22 protein level in WT and 22KO mice treated with 10 μg/mL Usp22i-S02. E-F, Graphical and representative data of Foxp3 MFI of human Treg cells treated with various doses of Usp22i-S02 (n=3). G, Graphical representation of Foxp3 MFI in WT, Usp21-null, and Usp22-null Treg cells treated with Usp22i-S02 at 10 μg/mL (n=3). H, FOXP3 and USP22 protein degradation of cycloheximide (10 μg/mL) treated iTreg cells with or without the addition of 10 μg/mL of Usp22i-S02. I-J, Endogenous DUB assay IP in iTreg cells of USP22 with FOXP3 under increasing concentrations of Usp22i-S02. K, Foxp3 mRNA level in iTreg cells as Usp22 inhibitor concentration increases from 0-20 μg/mL (n=3). L, FOXP3 and USP22 level in WT iTreg cells with or without 20 μg/mL Usp22 inhibitor treated with 20 μM MG132. M, Graphical representation of the percentage of decrease of Foxp3 MFI in either WT or Usp22-null nTreg cells placed in low glucose conditions with or without the addition of 10 μg/mL of Usp22i-S02 (n=7-8). N, Graphical representation of the percentage of decrease of Foxp3 MFI in WT nTreg cells placed in hypoxic or low amino acid conditions with or without the addition of 10 μg/mL of Usp22i-S02 (n=3-5). G, Two-tailed unpaired t-test comparing within groups was performed to determine statistical significance. K, One-way ANOVA with Dunnet's multiple comparisons between rows relative to control was performed to determine statistical significance. M-N, Two-way ANOVA with Sidak's multiple comparisons between rows was performed to determine statistical significance. All data are presented as mean±stdev. NS, not significant. *P<0.05, **P<0.01, ***P<0.001, ****P<0.0001.
After initial screening, we ran an in vitro dose response study on compound S02, dubbed Usp22i-S02, in both WT and Usp22-null iTreg cells (FIG. 6A-C).

[3] = test system: Foxp3 in human Treg cells; test: Foxp3 MFI of human Treg cells; format: cell-based; details: low doses
Method: as §1, with “N, Graphical representation of the percentage of decrease of Foxp3 MFI in WT nTreg cells placed in hypoxic or low amino acid conditions with or without the addition of 10 μg/mL of Usp22i-S02 (n=3-5). G, Two-tailed unpaired t-test comparing within groups was performed to determine statistical significance. K, One-way ANOVA with Dunnet's multiple comparisons between rows relative to control was performed to determine statistical significance. M-N, Two-way ANOVA with Sidak's multiple comparisons between rows was performed to determine statistical significance. All data are presented as mean±stdev. NS, not significant. *P<0.05, **P<0.01, ***P<0.001, ****P<0.0001.” left out

[4] = test system: LLC1 tumors in RAG−/− mice; test: LLC1 tumor growth in RAG−/− mice; format: in vivo; details: treated for 3 days at day 15 of tumor growth
Method: FIG. 8: Usp22i-S02 inhibits tumor growth in vitro and in vivo. A, In vitro counts of LLC1 after treatment with Usp22i-S02 under various concentrations for 24 hours (n=2). B, In vitro viability of LLC1 after treatment with Usp22i-S02 under various concentrations for 24 hours (n=2). C, In vitro relative growth of LLC1 cells treated with 10 ug/ml of Usp22i-S02 relative to DMSO treated control for 7 days via OD600 (n=4). D, Growth curve of 1 million subcutaneously injected LLC1 cells into RAG−/− mice treated for 3 days Usp22i-S02 relative to DMSO control injections at day 15 of tumor growth (n=4). C-D, Two-way ANOVA with Sidaks's multiple comparisons between rows relative to control was performed to determine statistical significance. All data are presented as mean±stdev. NS, not significant. *P<0.05, **P<0.01, ***P<0.001, ****P<0.0001.
As Usp22 is also an important oncogene, we were interested in the potential dual-therapeutic function of Usp22i-S02.

N#Cc1c2c(c(Nc3ccccc3)n3c1nc1ccccc13)CCCC2 [USP22i-S02, 11-anilino-7,8,9,10-tetrahydrobenzimidazo[1,2-b]isoquinoline-6-carbonitrile] was tested, and the IC50 [1] was about 4.7 µM, the “cytotoxicity to Tregs” value [2] was “does not show severe cytotoxicity” and the “viability of iTreg cells” value (Foxp3 in iTreg cells; 10 μg/mL) was “little effect on viability”. For the same compound, the “FOXP3 degradation with MG132” value (Foxp3 in iTreg cells; 20 μg/mL inhibitor, 20 μM MG132) was “halted by MG132 protease inhibition”, the “FOXP3 degradation in cycloheximide treated iTreg cells” value (Foxp3 in iTreg cells; CHX 10 μg/mL, 10 μg/mL inhibitor) was “enhanced FOXP3 degradation” and the “effect on iTreg cells lacking Usp21” value (Foxp3 in iTreg cells; Usp21-null, 10 μg/mL) was “full effect”. For the same compound, the “FOXP3 levels in murine Treg cells lacking Usp22” value (Foxp3 in iTreg cells; Usp22-null, in vivo and in vitro) was “minimal effect on FOXP3 levels”, the “Foxp3 under glucose starvation in Treg cells lacking Usp22” value (Foxp3 in iTreg cells; Usp22-null, low glucose, 10 μg/mL) was “no effect on Foxp3” and the “Foxp3 stability under glucose starvation” value (Foxp3 in iTreg cells; WT Treg cells, low glucose, 10 μg/mL) was “significantly diminished Foxp3 stability”. For the same compound, the “Foxp3 MFI and protein level” value (Foxp3 in iTreg cells; WT iTreg cells, 10 μg/mL) was “decreases in Foxp3 MFI and protein level comparable to Usp22-null iTreg cells”, the “Foxp3 stability under hypoxic and amino acid starvation conditions” value (Foxp3 in iTreg cells; WT nTreg cells, 10 μg/mL) was “reduces Foxp3 stability” and the Foxp3 transcription (Foxp3 in iTreg cells; iTreg cells, 0-20 μg/mL) was “decreased Foxp3 transcription”. The FOXP3 ubiquitination (Foxp3 in iTreg cells; iTreg cells, endogenous DUB assay IP) was “increased FOXP3 ubiquitination”, the “Foxp3 MFI in human Treg cells” value [3] was “significantly decreased Foxp3 MFI” and the “viability of human Treg cells” value [3] was “little effect to cell viability”. The “tumor growth in Rag−/− mice with established tumors” value [4] was “small but statistically significant decrease in tumor growth”.
